Structures are written as SMILES.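 Growth conditions: 96-well plates. Treatment: test compound, 48 hours, 5 concentrations. Analysis: linear interpolation between bracketing concentrations; unreached endpoints set to highest concentration. GI50 is the concentration that inhibits growth by half.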 Active and inactive are the calls of the source. No stated cut-off is given here; in the data, active = GI50 up to about 1.1 µM and inactive = higher.

Some test systems named below: K562; NCI/ADR-RES; MDA-MB-231; MCF7; A549; PC-3; SW-620; OVCAR-5; UACC-62; UO-31; EKVX; RPMI-8226; NCI-H460; ACHN; M14; MDA-N; HL-60; RXF 393; HCC 2998.
Assay in all cases: inhibition of tumour cell growth, NCI panel, 48 h

For the compound `N#Cc1c(N2CCN(c3ccc([N+](=O)[O-])cc3)CC2)[n+]([O-])c2ccc(-c3ccc([N+](=O)[O-])cc3)cc2[n+]1[O-]`, the GI50 in the assay with K562 was 5.26 µM (inactive); in the assay on NCI/ADR-RES, 9.08 µM (inactive); in the assay on MDA-MB-231 it was 22.5 µM (inactive); in the assay on MCF7 it was > 100 µM (inactive); in the assay with A549 it was 2.49 µM (inactive); in the assay with PC-3, 2.55 µM (inactive). Besides, the GI50 is 35.2 µM (inactive) with SW-620; 30.7 µM (inactive) with OVCAR-5; 18 µM (inactive) with UACC-62; 8.59 µM (inactive) in the assay on UO-31; 7.28 µM (inactive) in the assay with EKVX; 5.02 µM (inactive) in the assay on RPMI-8226. Further, the GI50 is 2.5 µM (inactive) in the assay with NCI-H460, > 49 µM (inactive) in the assay on ACHN, 19.2 µM (inactive) in the assay on M14 and 31.8 µM (inactive) in the assay with MDA-N.
`CC(C)(C)C(=O)N(C(=S)OCc1ccccn1)c1ccccc1`: the GI50 is 36.7 µM (inactive) in the assay on K562; 23.1 µM (inactive) in the assay on NCI/ADR-RES; 31 µM (inactive) in the assay with MDA-MB-231; 19.8 µM (inactive) in the assay with MCF7; 35.2 µM (inactive) in the assay on PC-3; 47.6 µM (inactive) with SW-620. Further, the GI50 in the assay on OVCAR-5 was 32.4 µM (inactive); with UACC-62, 63 µM (inactive); with UO-31 it was 27.8 µM (inactive); in the assay on HL-60, 19.9 µM (inactive); with EKVX it was 15.5 µM (inactive); in the assay with RPMI-8226, 12.2 µM (inactive). The GI50 with RXF 393 was 18.2 µM (inactive); in the assay with ACHN, 38.5 µM (inactive); in the assay with M14, 39.4 µM (inactive); with MDA-N, 41.6 µM (inactive).
`Cc1ccc(S(=O)(=O)N(CC(O)c2ccccc2)c2ccccc2F)cc1` (configuration not stated): the GI50 was 17 µM (inactive) with K562; 16.4 µM (inactive) in the assay on NCI/ADR-RES; 18.2 µM (inactive) in the assay on MDA-MB-231; 13 µM (inactive) in the assay on MCF7; 19.5 µM (inactive) in the assay with A549; 15.5 µM (inactive) with PC-3. For the same compound, the GI50 was 19.6 µM (inactive) with SW-620; 19.2 µM (inactive) in the assay with OVCAR-5; 24.2 µM (inactive) in the assay with HCC 2998; 12.2 µM (inactive) with UACC-62; 16.2 µM (inactive) in the assay with UO-31; 1.13 µM (inactive) in the assay with HL-60. Also, the GI50 is 35.6 µM (inactive) in the assay on EKVX; 17 µM (inactive) in the assay on RPMI-8226; 17.4 µM (inactive) with NCI-H460; 20.2 µM (inactive) with ACHN; 16.4 µM (inactive) in the assay on M14; 15.7 µM (inactive) in the assay on MDA-N.
In the case of `O=C(CCCN1CCC2(CC1)CC(=O)N(N1CCCCCC1)C2=O)c1ccc(F)cc1`, the GI50 in the assay with K562 was 32.4 µM (inactive); in the assay with NCI/ADR-RES, 18.2 µM (inactive); in the assay with MDA-MB-231 it was 82.6 µM (inactive); in the assay on MCF7, 46.2 µM (inactive); in the assay with A549, > 100 µM (inactive); with PC-3, > 100 µM (inactive). For the same compound, the GI50 is > 100 µM (inactive) in the assay on SW-620; 41.7 µM (inactive) in the assay on OVCAR-5; > 100 µM (inactive) with UACC-62; 91.6 µM (inactive) in the assay on UO-31; 14.1 µM (inactive) in the assay with HL-60; > 100 µM (inactive) with EKVX. Also, the GI50 is 58.5 µM (inactive) in the assay on RPMI-8226; 23.6 µM (inactive) with RXF 393; > 100 µM (inactive) in the assay with ACHN; 33.6 µM (inactive) in the assay with M14; > 100 µM (inactive) in the assay on MDA-N.
As for `O=c1c2c(oc3ccccc13)-c1ccccc1OC2`, the GI50 is > 100 µM (inactive) with K562; 29.3 µM (inactive) in the assay with NCI/ADR-RES; 21.1 µM (inactive) with MDA-MB-231; > 100 µM (inactive) in the assay on MCF7; 96.6 µM (inactive) with A549; > 100 µM (inactive) in the assay with PC-3. The GI50 is 67.8 µM (inactive) with SW-620; > 100 µM (inactive) in the assay with OVCAR-5; > 100 µM (inactive) in the assay on HCC 2998; > 100 µM (inactive) in the assay with UACC-62; 28.6 µM (inactive) in the assay on UO-31; 53.2 µM (inactive) in the assay with EKVX. For the same compound, the GI50 in the assay with RPMI-8226 is > 100 µM (inactive); in the assay with ACHN, 35.7 µM (inactive); in the assay on M14, > 100 µM (inactive); in the assay on MDA-N, > 100 µM (inactive).
Consider `Cc1ccc(C)c2c1NC(=O)/C2=N\Nc1ccccc1[N+](=O)[O-]`, for which the GI50 with K562 was 74.1 µM (inactive); in the assay on MDA-MB-231, > 100 µM (inactive); with MCF7, > 100 µM (inactive); in the assay on A549, > 100 µM (inactive); in the assay with PC-3, > 100 µM (inactive); in the assay with SW-620 it was > 100 µM (inactive). For the same compound, the GI50 in the assay with OVCAR-5, with HCC 2998, in the assay with UACC-62, with UO-31, in the assay on HL-60 and with EKVX was > 100 µM (inactive) each time. For the same compound, the GI50 in the assay with RPMI-8226, in the assay with NCI-H460, in the assay on RXF 393, with ACHN, in the assay with M14 and in the assay on MDA-N was > 100 µM (inactive) each time.
For `CN(C(=O)Cc1ccccc1)n1cn[n+](CC(=O)OC(C)(C)C)c1`, the GI50 in the assay with K562, in the assay on NCI/ADR-RES, in the assay with MDA-MB-231, in the assay with MCF7, with A549 and in the assay with PC-3 was > 10 µM (inactive) in each case. For the same compound, the GI50 with SW-620, with OVCAR-5, with HCC 2998, in the assay on UACC-62, in the assay on UO-31 and with EKVX was > 10 µM (inactive) each time. The GI50 in the assay on RPMI-8226 was 0.00119 µM (active); in the assay on NCI-H460, > 10 µM (inactive); with ACHN, > 10 µM (inactive); in the assay with M14, > 10 µM (inactive); with MDA-N, > 10 µM (inactive).
In the case of `C/C(=N\NC(=S)Nc1ccccc1)c1nc2cccnc2[nH]1`, the GI50 is 3.35 µM (inactive) in the assay on K562; 3.3 µM (inactive) in the assay with NCI/ADR-RES; 1.06 µM (active) in the assay with MDA-MB-231; 0.338 µM (active) in the assay on MCF7; 3.31 µM (inactive) in the assay with A549; 3.4 µM (inactive) with PC-3. The GI50 in the assay with SW-620 is 4.97 µM (inactive); with OVCAR-5, 4.79 µM (inactive); in the assay with HCC 2998 it was 2.91 µM (inactive); in the assay with UACC-62, 2.85 µM (inactive); with UO-31 it was 1.38 µM (inactive); in the assay on HL-60, 2.92 µM (inactive). Besides, the GI50 in the assay on EKVX is 0.649 µM (active); in the assay with RPMI-8226, 3.75 µM (inactive); in the assay with NCI-H460 it was 1.54 µM (inactive); with ACHN, 1.44 µM (inactive); with M14 it was 3.58 µM (inactive); with MDA-N, 5.65 µM (inactive).
Turning to `COc1ccc(P2(=S)OC(C)(C)C(C)(C)O2)cc1`, the GI50 in the assay with K562, in the assay with NCI/ADR-RES, in the assay with MDA-MB-231, with MCF7, in the assay on A549 and with PC-3 was > 100 µM (inactive) in each case. Further, the GI50 was > 100 µM (inactive) in the assay with SW-620; > 100 µM (inactive) in the assay with OVCAR-5; > 100 µM (inactive) in the assay on UACC-62; 17.5 µM (inactive) in the assay on UO-31; > 100 µM (inactive) in the assay on HL-60; > 100 µM (inactive) with EKVX. For the same compound, the GI50 in the assay on NCI-H460, in the assay with ACHN, in the assay on M14 and in the assay with MDA-N was > 100 µM (inactive) in each case.
`O=c1/c(=C\c2ccccc2)sc2n1C(c1ccccc1)C1(O)CCCCC1N=2` (configuration not stated): the GI50 is 45.2 µM (inactive) in the assay on K562; 95.7 µM (inactive) with MDA-MB-231; 43.7 µM (inactive) with MCF7; 78.3 µM (inactive) with A549; 69.7 µM (inactive) with PC-3; > 100 µM (inactive) with SW-620. For the same compound, the GI50 is > 100 µM (inactive) in the assay on OVCAR-5; 67.1 µM (inactive) in the assay with HCC 2998; > 100 µM (inactive) in the assay with UACC-62; 44.2 µM (inactive) in the assay with UO-31; 36 µM (inactive) in the assay with HL-60; 59.8 µM (inactive) in the assay on RPMI-8226. Moreover, the GI50 is 90.2 µM (inactive) in the assay with NCI-H460, 87.9 µM (inactive) in the assay with ACHN, > 100 µM (inactive) with M14 and > 100 µM (inactive) in the assay with MDA-N.
In the case of `CC(=O)OCCn1cnc2nc(Nc3ccccc3)nc(Cl)c21`, the GI50 was 49 µM (inactive) with K562; 95.3 µM (inactive) in the assay with NCI/ADR-RES; 38.1 µM (inactive) with MDA-MB-231; 46.8 µM (inactive) in the assay on MCF7; > 100 µM (inactive) in the assay on A549; 62.7 µM (inactive) in the assay on PC-3. The GI50 in the assay on SW-620 was > 100 µM (inactive); in the assay on OVCAR-5, > 100 µM (inactive); in the assay with HCC 2998, 74.5 µM (inactive); with UACC-62, 44.1 µM (inactive); in the assay on HL-60, 47.8 µM (inactive); in the assay on EKVX, > 100 µM (inactive). The GI50 with RPMI-8226 is 89.5 µM (inactive); in the assay on NCI-H460 it was 51.9 µM (inactive); in the assay with ACHN, 42 µM (inactive); in the assay with MDA-N, 36.1 µM (inactive).
On to `N#C/C(N)=C(C#N)/N=C/Nc1ccc(N)cc1`, for which the GI50 with K562 was > 100 µM (inactive); in the assay with NCI/ADR-RES it was > 100 µM (inactive); in the assay with MDA-MB-231, > 100 µM (inactive); in the assay on MCF7, 96.6 µM (inactive); in the assay on A549, > 100 µM (inactive); in the assay with PC-3 it was > 100 µM (inactive). In addition, the GI50 in the assay on SW-620 was > 100 µM (inactive); in the assay with OVCAR-5, > 100 µM (inactive); with HCC 2998, > 100 µM (inactive); in the assay on UACC-62 it was > 100 µM (inactive); in the assay on UO-31, > 100 µM (inactive); with HL-60, 30.3 µM (inactive). Also, the GI50 with EKVX, in the assay on RPMI-8226, in the assay with NCI-H460, in the assay on ACHN, with M14 and in the assay with MDA-N was > 100 µM (inactive) in each case.
